The record followed here is patent US5025033A, “Alkylene diamines” (Takeda Chemical Industries, Ltd., priority 1988, dated 1991).

Structures can show the parent of a compound that is named as a salt.

T1 sequence (P37136 32-614): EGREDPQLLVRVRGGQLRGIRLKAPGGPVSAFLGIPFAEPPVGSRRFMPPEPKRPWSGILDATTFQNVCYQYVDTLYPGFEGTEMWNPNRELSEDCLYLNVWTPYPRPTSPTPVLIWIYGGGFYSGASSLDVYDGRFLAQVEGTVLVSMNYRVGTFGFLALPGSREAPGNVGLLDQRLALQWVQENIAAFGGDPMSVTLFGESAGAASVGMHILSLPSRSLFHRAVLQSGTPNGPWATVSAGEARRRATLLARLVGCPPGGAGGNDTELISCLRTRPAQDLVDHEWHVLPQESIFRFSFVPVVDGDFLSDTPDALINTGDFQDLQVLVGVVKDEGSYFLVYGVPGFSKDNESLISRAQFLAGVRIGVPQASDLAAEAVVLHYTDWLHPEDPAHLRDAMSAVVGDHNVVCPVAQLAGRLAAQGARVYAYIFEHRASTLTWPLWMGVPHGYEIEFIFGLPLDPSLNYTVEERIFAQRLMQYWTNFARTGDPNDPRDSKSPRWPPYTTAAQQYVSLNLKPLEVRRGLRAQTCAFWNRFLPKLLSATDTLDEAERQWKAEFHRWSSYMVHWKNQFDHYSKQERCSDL

This experiment addresses T1, Acetylcholinesterase (Rattus norvegicus, UniProt P37136).
T1 construct: the S1 fraction of a male Wistar rat cerebral cortex homogenate was used as a cholinesterase source; from tissue; host or cells: male Wistar rat cerebral cortex homogenate, S1 fraction
Description: Acetylcholinesterase inhibiting activity using (acetyl-[3H])-acetylcholine, S1 fraction of rat cerebral cortex homogenate. The experiment is classed as biochemical, male Wistar rat. Conditions: rat cerebral cortex homogenate S1 fraction; 30 minutes of incubation; read-out: Acetylcholinesterase inhibiting activity IC50. As for the experimental part: The compounds according to the invention were examined for cholinesterase inhibiting activity using (acetyl-[^3 H])-acetylcholine. Thus, the S1 fraction of a male Wistar rat cerebral cortex homogenate was used as a cholinesterase source, and (acetyl-[^3 H])-acetylcholine (as substrate) and each test compound according to the invention were added and, after 30 minutes of incubation, the reaction was terminated. A toluene type scintillator was added, and the mixture was shaken, whereby the reaction product [^3 H]-acetic acid was transferred to the toluene layer. The cholinesterase activity was determined by counting said [^3 H]-acetic acid with a liquid scintillation counter.
The cholinesterase inhibiting activity of each test compound was expressed in terms of 50% inhibitory concentration (IC50).
For the compound `CN(CCCCN1C(=O)c2ccc([N+](=O)[O-])cc2C1=O)Cc1ccccc1` [Compound 1, 2-[4-(N-Benzyl-N-methyl)aminobutyl]-5-nitro-1H--isoindole-1,3(2H)-dione hydrochloride], the IC50 (commonly the concentration that gives 50% inhibition) amounted to 9500 nM.

Regarding `CN(CCCCCN1C(=O)c2ccc([N+](=O)[O-])cc2C1=O)Cc1ccccc1` [Compound 2-2], the IC50 turned out to be 1400 nM.

As for `CCN(CCCCN1C(=O)c2ccc([N+](=O)[O-])cc2C1=O)Cc1ccccc1` [Compound 2-3], the IC50 turned out to be 250 nM.

`O=C1c2ccc([N+](=O)[O-])cc2C(=O)N1CCCCN(CCO)Cc1ccccc1` [Compound 2-4]: the IC50 stood at 1500 nM.

Take `O=C1c2ccc([N+](=O)[O-])cc2C(=O)N1CCCCN1CCc2ccccc2C1` [Compound 2-6]: the IC50 is 18000 nM.

Turning to `CC(C)N(CCCCN1C(=O)c2ccc([N+](=O)[O-])cc2C1=O)Cc1ccccc1` [Compound 2-7], the IC50 stood at 490 nM.

For `CN(CCCCCCN1C(=O)c2ccc([N+](=O)[O-])cc2C1=O)Cc1ccccc1` [Compound 2-9], the IC50 is 480 nM.

`CN(CCCCCCCN1C(=O)c2ccc([N+](=O)[O-])cc2C1=O)Cc1ccccc1` [Compound 2-10]: the IC50 was 1800 nM.

As to `CCCCN(CCCCN1C(=O)c2ccc([N+](=O)[O-])cc2C1=O)Cc1ccccc1` [Compound 2-11], the IC50 was determined as 1900 nM.

`CC(C)N(CCCCCN1C(=O)c2ccc([N+](=O)[O-])cc2C1=O)Cc1ccccc1` [Compound 2-12]: the IC50 amounted to 830 nM.

With `CCN(CCCN1C(=O)c2ccc([N+](=O)[O-])cc2C1=O)Cc1ccccc1` [Compound 2-13], the IC50 was 10000 nM.

As to `CCN(CCCCCCN1C(=O)c2ccc([N+](=O)[O-])cc2C1=O)Cc1ccccc1` [Compound 2-14], the IC50 is 660 nM.

In the case of `CCN(CCCCCCCN1C(=O)c2ccc([N+](=O)[O-])cc2C1=O)Cc1ccccc1` [Compound 2-15], the IC50 was found to be 4600 nM.

`CCCN(CCCCN1C(=O)c2ccc([N+](=O)[O-])cc2C1=O)Cc1ccccc1` [Compound 2-16]: the IC50 came to 1900 nM.

Turning to `CCN(CCCCCN1C(=O)c2ccc([N+](=O)[O-])cc2C1=O)Cc1ccc(C)cc1` [Compound 2-17], the IC50 came to 370 nM.

For the compound `CCN(CCCCCN1C(=O)c2ccc([N+](=O)[O-])cc2C1=O)Cc1ccc(OC)cc1` [Compound 2-18], the IC50 is 270 nM.

Turning to `CCN(CCCCCN1C(=O)c2ccc([N+](=O)[O-])cc2C1=O)Cc1ccc(Cl)cc1` [Compound 2-19], the IC50 was 240 nM.

For `CCN(CCCCCN1C(=O)c2ccc([N+](=O)[O-])cc2C1=O)Cc1cccc(Cl)c1` [Compound 2-20], the IC50 stood at 240 nM.

Regarding `CCN(CCCCCN1C(=O)c2ccc([N+](=O)[O-])cc2C1=O)Cc1ccccc1Cl` [Compound 2-21], the IC50 came to 130 nM.

`CCN(CCCCCN1C(=O)c2ccc([N+](=O)[O-])cc2C1=O)Cc1ccccc1F` [Compound 2-22]: the IC50 worked out at 270 nM.

For `CCN(CCCCCN1C(=O)c2ccc([N+](=O)[O-])cc2C1=O)Cc1ccccc1C` [Compound 2-23], the IC50 stood at 110 nM.

For `CCN(CCCCCN1C(=O)c2ccc([N+](=O)[O-])cc2C1=O)Cc1ccccc1[N+](=O)[O-]` [Compound 2-24], the IC50 was 490 nM.

Consider `CCN(CCCCCN1C(=O)c2ccc([N+](=O)[O-])cc2C1=O)Cc1ccccc1OC` [Compound 2-25], for which the IC50 was 28 nM.

Consider `CCN(CCCCCN1C(=O)c2ccc([N+](=O)[O-])cc2C1=O)Cc1cccc(OC)c1` [Compound 2-26], for which the IC50 was found to be 45 nM.

Consider `CCN(CCCCCN1C(=O)c2ccc([N+](=O)[O-])cc2C1=O)Cc1cccc(OC)c1OC` [Compound 2-27], for which the IC50 turned out to be 270 nM.

`CCN(CCCCCN1C(=O)c2ccc([N+](=O)[O-])cc2C1=O)Cc1cccc2ccccc12` [Compound 2-28]: the IC50 stood at 110 nM.

Consider `CN(CCCCN1C(=O)c2ccc(N)cc2C1=O)Cc1ccccc1` [Compound 3, 5-Amino-2-[4-(N-benzyl-N-methyl)aminobutyl]-1H-isoindole-1,3(2H)-dione hydrochloride], for which the IC50 was determined as 34000 nM.

In the case of `CN(CCCCN1C(=O)c2ccc(NC(=O)c3ccccc3)cc2C1=O)Cc1ccccc1` [Compound 4, 2-[4-(N-Benzyl-N-methyl)aminobutyl]-5-benzoylamino-1H-isoindole-1,3(2H)-dione], the IC50 is 11000 nM.

As for `CC(=O)Nc1ccc2c(c1)C(=O)N(CCCCN(C)Cc1ccccc1)C2=O` [Compound 5-1], the IC50 was determined as 11000 nM.

`Cc1ccc(S(=O)(=O)Nc2ccc3c(c2)C(=O)N(CCCCN(C)Cc2ccccc2)C3=O)cc1` [Compound 5-2]: the IC50 was determined as 37000 nM.

As for `CN(CCCCN1C(=O)c2ccc(NS(=O)(=O)Cc3ccccc3)cc2C1=O)Cc1ccccc1` [Compound 5-3], the IC50 was found to be 9200 nM.

As for `O=C1c2ccc([N+](=O)[O-])cc2C(=O)N1CCCCNCc1cccc2ccccc12` [Compound 8-2], the IC50 came to 2900 nM.

For `CN(CCCCNC(=O)/C=C/c1ccc([N+](=O)[O-])cc1)Cc1ccccc1` [Compound 9, (E)-N-[4-(N-Methyl-N-benzyl)aminobutyl]-3-(4-nitrophenyl)-2-propenamide], the IC50 amounted to 14000 nM.

Take `CCN(CCCCCN1C(=O)c2ccc(N)cc2C1=O)Cc1ccccc1` [Compound 10, 5-Amino-2-[5-(N-benzyl-N-ethyl)aminopentyl]-1H -isoindole-1,3(2H)-dione dihydrochloride]: the IC50 stood at 1200 nM.

As for `CCN(CCCCCN1C(=O)c2ccc(NC(=O)c3ccccc3)cc2C1=O)Cc1ccccc1` [Compound 11-2], the IC50 is 730 nM.

As to `CCN(CCCCCN1C(=O)c2ccc(NC(=O)Cc3ccccc3)cc2C1=O)Cc1ccccc1` [Compound 11-3], the IC50 was determined as 1500 nM.

As for `CCN(CCCCCN1C(=O)c2ccc(NS(=O)(=O)c3ccc(C)cc3)cc2C1=O)Cc1ccccc1` [Compound 11-4], the IC50 was 2200 nM.

Consider `CCN(CCCCCN1C(=O)c2ccc(NS(=O)(=O)Cc3ccccc3)cc2C1=O)Cc1ccccc1` [Compound 11-5], for which the IC50 is 240 nM.

In the case of `CCN(CCCCCN1C(=O)c2ccc(NS(C)(=O)=O)cc2C1=O)Cc1ccccc1` [Compound 11-6], the IC50 worked out at 470 nM.

On to `CCN(CCCCCN1C(=O)c2cccc([N+](=O)[O-])c2C1=O)Cc1ccccc1` [Compound 12-3], for which the IC50 was found to be 680 nM.

For the compound `CCN(CCCCCN1C(=O)c2ccc(O)cc2C1=O)Cc1ccccc1` [Compound 12-4], the half-maximal inhibitory concentration (IC50) worked out at 2500 nM.

With `CCN(CCCCCN1C(=O)c2ccc(OC(C)=O)cc2C1=O)Cc1ccccc1` [Compound 12-5], the IC50 came to 2100 nM.

`CCN(CCCCCN1C(=O)c2ccc(OC)cc2C1=O)Cc1ccccc1` [Compound 12-6]: the IC50 was 710 nM.

As to `CCN(CCCCCN1C(=O)c2ccc(Cl)cc2C1=O)Cc1ccccc1` [Compound 12-7], the IC50 is 1300 nM.

With `CCN(CCCCCN1C(=O)c2ccc(C(=O)O)cc2C1=O)Cc1ccccc1` [Compound 12-8, 2-[5-(N-benzyl-N-ethyl)aminopentyl]-1,3-dioxo-1H-isoindole-5-carboxylic acid hydrochloride], the IC50 was 8800 nM.

In the case of `CCN(CCCCCN1C(=O)c2ccc(C(=O)N(CC)CC)cc2C1=O)Cc1ccccc1` [Compound 12-9], the IC50 was 980 nM.

For the compound `CCN(CCCCCN1C(=O)c2ccc(C(=O)c3ccccc3)cc2C1=O)Cc1ccccc1` [Compound 12-10], the IC50 came out at 1100 nM.

`CCN(CCCCCN1C(=O)c2ccc(C)cc2C1=O)Cc1ccccc1` [Compound 12-11]: the IC50 is 1800 nM.

Consider `CCN(CCCCCN1C(=O)c2ccc(OS(C)(=O)=O)cc2C1=O)Cc1ccccc1` [Compound 12-12], for which the IC50 turned out to be 380 nM.

As to `CCN(CCCCCN1C(=O)c2ccc(C(=O)NC)cc2C1=O)Cc1ccccc1` [Compound 12-13], the IC50 came to 380 nM.

As for `CCN(CCCCCN1C(=O)c2ccc(C(=O)OC)cc2C1=O)Cc1ccccc1` [Compound 13, Methyl 2-[5-(N-benzyl-N-ethyl)aminopentyl]-1,3(2H)-dioxo-1H-isoindole-5-carboxylate hydrochloride], the IC50 amounted to 580 nM.

Turning to `CN(CCCCNC(=O)/C=C/c1cccc([N+](=O)[O-])c1)Cc1ccccc1` [Compound 14-1], the IC50 amounted to 13000 nM.

As to `CN(CCCCNC(=O)/C=C/c1ccccc1[N+](=O)[O-])Cc1ccccc1` [Compound 14-2], the IC50 was 18000 nM.

`CCN(CCCNC(=O)/C=C/c1ccc([N+](=O)[O-])cc1)Cc1ccccc1` [Compound 14-9]: the IC50 amounted to 11000 nM.

On to `CCN(CCCCCCCNC(=O)/C=C/c1ccc([N+](=O)[O-])cc1)Cc1ccccc1` [Compound 14-10], for which the IC50 stood at 15000 nM.

Take `CCN(CCCCCNC(=O)/C=C/c1ccc(OC)c(OC)c1)Cc1ccccc1` [Compound 14-11]: the IC50 was 5400 nM.

Regarding `CCN(CCCCCNC(=O)/C=C/c1ccccc1[N+](=O)[O-])Cc1ccccc1` [Compound 14-12], the IC50 was found to be 3900 nM.

`CCN(CCCCCNC(=O)/C=C/c1cccc([N+](=O)[O-])c1)Cc1ccccc1` [Compound 14-13]: the IC50 came to 3000 nM.

In the case of `CCN(CCCCCNC(=O)/C=C/c1ccc(Cl)cc1)Cc1ccccc1` [Compound 14-14], the 50% inhibitory concentration (IC50) is 16000 nM.

`CCN(CCCCCNC(=O)/C=C/c1ccc(C)cc1)Cc1ccccc1` [Compound 14-15]: the IC50 was determined as 16000 nM.

`CCN(CCCCCNC(=O)/C=C/c1ccc(C#N)cc1)Cc1ccccc1` [Compound 14-16]: the IC50 amounted to 5000 nM.

Consider `CCN(CCCCCNC(=O)/C=C/c1ccc(O)cc1)Cc1ccccc1` [Compound 14-17], for which the IC50 came out at 13000 nM.

Turning to `CCN(CCCCCNC(=O)/C=C/c1ccc(OC)cc1)Cc1ccccc1` [Compound 14-18], the IC50 amounted to 16000 nM.
